Results from patent publication US10442767B2 (priority 2012, dated 2019).

Tests used:
[1] = test system: hypomyelinated optic nerves from Shiverer mice (shi^−/−); test: Compound action potential (CAP) of dissected hypomyelinated optic nerve; format: cell-based, mouse; conditions: Mus musculus; hypomyelinated Shiverer optic nerve, 22 °C, Hill fit; read-out: half-maximal effective concentration (EC50) in enhancing the CAP
Description: In order to determine if the drugs could also be effective in enhancing compound action potentials (CAP), the effects of these compounds on the CAP of hypomyelinated optic nerves from Shiverer mice (shi^−/−) and control mice (shi^+/−, shi^+/+) were tested. Shiverer mice lack compact myelin in the CNS due to a null mutation of the myelin basic protein gene (MBP).
optic nerves were dissected from 12-16 week old Shiverer (shi^−/−) and control mice (shi^+/− and shi^+/+). Mice were euthanized by CO2 overdose and the optic nerves were quickly dissected between the eyeball and the optic chiasm. The nerves were incubated for 30 min at 37° C. in oxygenated (95% O2, 5% CO2) aCSF solution (126 mM NaCl, 3 mM KCl, 2 mM MgSO4, 26 mM NaHCO3, 2 mMCaCl2, 10 mM dextrose, pH 7.5) before the experiment.
compound action potentials (CAP) from hypomyelinated nerves (Shiverer mice, shi^−/−) and myelinated nerves (litermate controls, shi^+/− and shi^+/+) were recorded using suction electrodes as described by Stys et al. Briefly, the dissected optic nerve was placed inside a chamber containing oxygenated (5% CO2, 95% O2) aCSF (300 μL) between two suction electrodes (stimulus and recording electrodes) forming a tight seal on each end. Two additional electrodes were placed in the bath for reference. A supramaximal pulse (250 mV, 20 μs) was applied at the stimulating end of the nerve. The resulting CAP was amplified from the recording electrode using a high impedance low-noise amplifier (EG&G Princeton Applied Research Corporation) and filtered and sampled at 10-100 kHz. […] After each measurement the chamber was washed for 5 min (flow 1 mL/min) with oxygenated aCSF. The study was conducted at 22.2±1.3° C. to allow for slower conduction and the temperature was monitored throughout the experiment. CAP recordings were acquired with a SBC6711 board (Innovative Integration) controlled by in-house written software. Analysis of the traces was done using an in-house software. The half-maximal effective concentration (EC50) for each drug was calculated by plotting the final over initial amplitude vs. concentration and fitted to the Hill equation using Origin.
(§1) The Hill equation used to fit the data from the voltage-clamp and the optic nerve experiments was as follows: y=y0+(yf−y0)*x^n/(k^n+x^n); where n refers to the Hill coefficient (typically 1±0.1) and k refers to EC50 or IC50. y0 and yf refers to the origin and final ordinate values and were fixed at 1±0.1 or 0±0.1 depending on the experiment. EC50=10^<log EC50>; where <log EC50>=average of log EC50 values from all experiments with the same drug. 95% C.I.=[Upper Limit . . . Lower Limit]; where U.L.=10^(log EC50+s.d.) and L.L.=10^(log EC50−s.d.). The half-life (t1/2) in the stability and pharmacokinetic experiments was calculated by fitting the data to the equation Ct=C0*exp(−k*t) where C0=initial concentration, Ct=concentration at time t, and k=ln 2/t1/2. Student t-test was used to compare results and P<0.05 was considered significant.

Shaker K^+ channel = biological target: T1, Shaker K^+ channel (Drosophila melanogaster, UniProt P08510); test: Inhibition of K+ currents, cut-open oocyte voltage clamp; format: cell-based, Xenopus oocytes
T1 construct: injecting approximately 50 ng of WT Shaker cRNA (kit Ambion) into the oocytes; expressed in transfected cells; host or cells: Xenopus laevis oocytes (cRNA injection)
Description: Using the cut-open oocyte voltage clamp studies to screen compounds to determine their potency towards Kv1 cannels was previously described in Starace and Bezanilla et al. (2004).
For this experiment, Shaker K^+ channel from D. […] was chosen as the archetypical voltage gated K^+ channel that gives name to the family.
Electrophysiology studies are conducted according to the protocol by Stefani and Bezanilla (1998). Briefly, K^+ channel Shaker cRNA is injected into Xenopus oocytes 24 h after their surgical extraction from adult frogs. 1-5 days after injection channel currents are recorded using the cut-open voltage-clamp.
K^+ channel expression in Xenopus oocytes membranes was achieved by injecting approximately 50 ng of WT Shaker cRNA (kit Ambion) into the oocytes 24 h after surgical extraction from adult frogs and collagenase treatment. Injected oocytes were maintained in a standard oocytes solution (100 mM NaCl, 5 mM KCl, 2 mM CaCl2, and 10 mM Hepes at pH 7.5) at 16.5° C. and recordings were performed 1-3 days after injection.
K^+ currents were recorded from oocytes expressing Shaker K^+ channels using the cut-open voltage clamp technique as described by Stefani and Bezanilla. The internal solution was 120 mM KOH, 20 mM HEPES-methyl sulfonate (MES) pH 7.4, 2 mM EGTA. The external solution was 12 mM KOH, 105 mM N-methyl-D-glucamine-MES pH 7.4, 20 mM HEPES, 2 mM CaOH. […] After application, cells were voltage-clamped at least 5 min at 0 mV, then voltage-clamped at −80 mV for 1-2 min. K^+ currents were generated by applying series of 50 ms pulses from −70 mV to +40 mV in increments of 10 mV. […] Analysis of the traces was done using an in-house software. The half-maximal inhibitory concentration (IC50) for each drug was calculated by plotting the relative K^+ current vs. concentration and fitted to the Hill equation using the software Origin.
EC50=10^<log EC50>; where <log EC50>=average of log EC50 values from all experiments with the same drug. 95% C.I.=[Upper Limit . . . Lower Limit]; where U.L.=10^(log EC50+s.d.) and L.L.=10^(log EC50−s.d.). The half-life (t1/2) in the stability and pharmacokinetic experiments was calculated by fitting the data to the equation Ct=C0*exp(−k*t) where C0=initial concentration, Ct=concentration at time t, and k=ln 2/t1/2. Student t-test was used to compare results and P<0.05 was considered significant.

Stability in microsomes = format: in vitro ADME, CD1 mouse; conditions: mouse liver microsomes
Description: The stability of these drugs in mouse plasma and mouse liver microsomes was also tested. Liver microsomes contain large amounts of cytochrome P450 and can be used to estimate the metabolic stability of drugs.
study compounds were incubated at initial concentration of 1 μM with liver microsomes from CD1 mouse (0.04 mg/mL) in PBS in the presence or absence of enzyme cofactors (1.3 mM NADP^+, 3.3 mM MgCl2, 3.3 mM G6P and 1 U/ml G6PDH, 1 mM UDPGA and 4.7 μg/ml Alamethicin). After t=0, 20, 40 and 60 min, a sample was removed and the reaction was stopped by adding 1 volume of acetonitrile. The loss of compound was determined by LC-MS analysis comparing the amount of compound in the sample to the respective reference samples (without cofactors). To ensure that the assay is reliable, Propanolol and Verapamil were included as control compounds. […]
as §1, with “EC50=10^<log EC50>; where <log EC50>=average of log EC50 values from all experiments with the same drug. 95% C.I.=[Upper Limit . . . Lower Limit]; where U.L.=10^(log EC50+s.d.) and L.L.=10^(log EC50−s.d.).” left out, “Student t-test was used to compare results and P<0.05 was considered significant.” left out

T1 sequence (P08510 whole entry): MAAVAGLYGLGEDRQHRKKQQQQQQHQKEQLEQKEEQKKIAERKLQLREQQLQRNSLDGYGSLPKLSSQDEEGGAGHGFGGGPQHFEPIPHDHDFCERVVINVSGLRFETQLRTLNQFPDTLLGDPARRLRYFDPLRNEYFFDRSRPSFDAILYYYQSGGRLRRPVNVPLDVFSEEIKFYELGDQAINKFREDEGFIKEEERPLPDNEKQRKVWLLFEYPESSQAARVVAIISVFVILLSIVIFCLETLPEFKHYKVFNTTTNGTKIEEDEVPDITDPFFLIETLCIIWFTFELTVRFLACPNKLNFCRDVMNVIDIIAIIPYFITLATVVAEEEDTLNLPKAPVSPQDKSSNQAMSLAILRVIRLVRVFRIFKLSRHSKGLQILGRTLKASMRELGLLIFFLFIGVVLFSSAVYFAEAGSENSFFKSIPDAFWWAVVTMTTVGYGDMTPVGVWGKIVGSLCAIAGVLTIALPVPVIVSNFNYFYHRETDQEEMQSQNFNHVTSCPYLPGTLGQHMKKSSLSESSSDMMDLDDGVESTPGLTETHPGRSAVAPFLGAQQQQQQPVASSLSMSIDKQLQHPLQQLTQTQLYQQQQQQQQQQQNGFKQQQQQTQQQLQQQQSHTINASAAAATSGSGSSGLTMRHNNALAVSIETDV

Nc1ccncc1F [3-F-4-AP, 3-fluoro-4-aminopyridine]
EC50 [1]: 96 µM
affinity for K^+ channels compared with 4-AP (Shaker K^+ channel; cut-open oocyte voltage clamp (Example 2)): very similar affinity to 4-AP
IC50 (Shaker K^+ channel; relative K+ current at +20 mV, Xenopus oocytes, Hill fit, read-out: half-maximal inhibitory concentration (IC50)): 250 µM
times more stable than 4-AP in microsomes (Stability in microsomes): 2.7 times
